# Where two headings read alike, the source gives them in different places.
# Key:
# [1] = test system: HTT mRNA; test: RT-qPCR splicing assay, HTT canonical junction (CJ) and alternative junction (AJ) mRNA; format: cell-based, human; settings: Homo sapiens
# Method in brief: (§1)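 Read-out is one-step RT-qPCR on cell lysates detecting the exon-exon junction of each isoform, normalized to a housekeeping gene (PPIA in A673, GAPDH or GUSB in K562).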
# [2] = test system: MYB mRNA; test: RT-qPCR splicing assay, MYB canonical junction (CJ) and alternative junction (AJ) mRNA; format: cell-based, human; settings: Homo sapiens
# Method in brief: as §1
# [3] = test system: SMN2 mRNA; test: RT-qPCR splicing assay, SMN2 canonical junction (CJ) mRNA; format: cell-based, human; settings: Homo sapiens; Table 5 panel; canonical junction qPCR; compound concentration having 50% response in CJ decrease; read-out: SMN2 IC50 (decrease in CJ mRNA levels)
# Method in brief: (§2)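 A673 or K562 cells were treated for 24 h at 37 °C with compound in 11-point 3-fold dilution (top 10 uM final, DMSO ≤0.25%). Lysates then went to one-step RT-qPCR measuring canonical-junction mRNA, normalized to GAPDH, GUSB or PPIA.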
# [4] = test system: Target C; test: RT-qPCR splicing assay panel, Target C canonical junction (CJ) mRNA; format: cell-based, human; settings: Homo sapiens; Table 5 panel; canonical junction qPCR; compound concentration having 50% response in CJ decrease; read-out: Target C IC50 (decrease in CJ mRNA levels)
# Method in brief: as §2
# [5] = test system: K562 (human chronic myelogenous leukemia) cells; test: Cell Titer Glo 2.0 cell viability assay; format: cell-based; settings: Homo sapiens, K562, 72 h, K562 cells, 72 hours, Cell Titer Glo 2.0; read-out: K562 GI50
# [6] = test system: Target C; test: HiBiT protein abundance assay, Target C (Promega Nano-Glo HiBiT Lytic Detection System, knock-in K562 cell line); format: cell-based, human; settings: Homo sapiens, K562, 24 h, HiBiT K562 cell line, 24 hours, top dose 10 μM; read-out: Effect on protein abundance, Target C (IC50 category)
# Protocol: (§3) • Promega Nano-Glo HiBiT Lytic Detection System (cat #N3030) • Corning 384-well TC-treated microplates (cat #3570) • Synthego Engineered Cells Knock-In Clones
# (§4) Cells were maintained in IMDM with 10% FBS. Before the assay, cells were diluted with […] growth media (IMDM+[…] media) and were seeded in a 384-well plate at a density of 10,000 cells/well (for each cell line listed in Table 5). Each compound was prepared as a 10-point 3-fold serial dilution in DMSO with the top dose at a final concentration of 10 μM in the well. Unmodified K562 cells were added at the previously specified density with DMSO to serve as an assay baseline and positive control (PC) and DMSO only with the respective modified cell lines was added to the negative control (NC) columns. Final DMSO concentration was kept at or below 0.25%. Treated cell plates were placed in an incubator at 37° C. with […] for 24 hours. After 24 hours, 25 μL of Complete HiBit Lytic reagent was added to each well at room temperature (e.g. one plate requiring 10 mL Lytic Buffer, 100 μL LgBiT Protein, 200 μL Lytic Substrate), shaken for 5 minutes at 600 RPM, then left to sit for 10 minutes for signal to stabilize before reading on a Spark Cyto plate reader (Tecan) with a 500 ms measurement time.
# (§5) To determine compound effects on protein abundance of each target in Table 5, the percent response for each respective cell line was calculated at each compound concentration as follows:
# (§6) For the normalized response at each concentration, a four-parameter logistical regression was fit to the data and the response was interpolated at the […] to determine a concentration for protein abundance at […] the untreated control.
# [7] = test system: MYB; test: HiBiT protein abundance assay, MYB HiBiT K562 cell line; format: cell-based, human; settings: HiBiT K562 cell line, 24 hours, top dose 10 μM; read-out: Effect on protein abundance, MYB (IC50 category)
# Protocol: (§7) Compounds described herein were used to screen for effects on quantitative protein abundance using a HiBit assay system (Promega). Quantitative protein abundance was determined by measuring the protein levels of HiBit-tagged protein targets expressed in cell culture via luminescence using the Nano-Glo HiBiT Lytic Detection System, which uses a split complementation assay format to reconstitute NanoBiT enzyme to generate a luminescent signal. A protein abundance assay was developed such that endogenous protein targets could be modified with the HiBiT peptide tag and their abundance could be assessed after compound treatment. Briefly, K562 cell lines containing a HiBiT-modification were treated with various compounds described herein (e.g., compounds of Formulas (I), (II), (III), (IV), (V), (VI), (VII), (VIII), or (IX)). After treatment for 24 hours, the protein abundance of a specific target was determined by measuring luminescence.
# as §3, §4, §5, §6
# [8] = test system: HTT; test: HiBiT protein abundance assay, HTT HiBiT K562 cell line; format: cell-based, human; settings: HiBiT K562 cell line, 24 hours, top dose 10 μM; read-out: Effect on protein abundance, HTT (IC50 category)
# Protocol: as §7, §3, §4, §5, §6
Structure (SMILES),"IC50 ([1]; decrease in HTT canonical junction (CJ) mRNA, RT-qPCR, read-out: HTT CJ IC50) [nM]","IC50 ([1]; Table 5 panel, canonical junction qPCR, compound concentration having 50% response in CJ decrease, read-out: HTT IC50 (decrease in CJ mRNA levels)) [nM]","IC50 ([2]; Table 5 panel, canonical junction qPCR, compound concentration having 50% response in CJ decrease, read-out: MYB IC50 (decrease in CJ mRNA levels)) [nM]","IC50 ([2]; decrease in MYB canonical junction (CJ) mRNA, RT-qPCR, read-out: MYB CJ IC50) [nM]",IC50 [3] [nM],IC50 [4] [nM],GI50 [5] [nM],IC50 [6] [nM],IC50 [7] [nM],IC50 [8] [nM],"AC50 ([1]; increase in HTT alternative junction (AJ) mRNA, RT-qPCR, read-out: HTT AJ AC50) [nM]","AC50 ([2]; increase in MYB alternative junction (AJ) mRNA, RT-qPCR, read-out: MYB AJ AC50) [nM]"
Cc1cn2cc(-c3cc(F)c4c(=O)n(C5CCNC5)cnc4c3)cc(F)c2n1 (stereo not drawn) [Compound 344],1000 to 10000,1000 to 10000,100 to 1000,100 to 1000,< 100,1000 to 10000,1000 to 10000,> 10000,,,1000 to 10000,100 to 1000
"Cc1cn2nc(-c3cc(O)c4c(=O)n(C5CCNC6(CC6)C5)ccc4c3)cc(C)c2n1 (stereo not drawn) [Compound 466, 6-(2,8-dimethylimidazo[1,2-b]pyridazin-6-yl)-8-hydroxy-2-(4-azaspiro[2.5]octan-7-yl)isoquinolin-1(2H)-one]",,,,,,,< 100,< 100,< 100,< 100,,
Cc1cn2nc(-c3cc(C)c4c(=O)n([C@H]5CCNC6(CC6)C5)ncc4c3)cc(C)c2n1 [Compound 467],,,,,,,1000 to 10000,100 to 1000,100 to 1000,100 to 1000,,
Cc1cn2nc(-c3cc(C)c4c(=O)n([C@@H]5CCNC6(CC6)C5)ncc4c3)cc(C)c2n1 [Compound 468],,,,,,,100 to 1000,< 100,< 100,< 100,,
Cc1cn2nc(-c3cc(O)c4c(=O)n([C@H]5CCNC6(CC6)C5)ncc4c3)cc(C)c2n1 [Compound 469],,,,,,,< 100,< 100,< 100,< 100,,
Cc1cn2nc(-c3cc(O)c4c(=O)n([C@@H]5CCNC6(CC6)C5)ncc4c3)cc(C)c2n1 [Compound 470],,,,,,,100 to 1000,< 100,100 to 1000,< 100,,
Cc1cn2nc(-c3cc(F)c4c(=O)n(C5CCNCC5)cnc4c3)cc(C#N)c2n1 [Compound 501],,,,,,,100 to 1000,< 100,< 100,< 100,,
"Cc1cn2c(n1)CCC(c1cc(F)c3c(=O)n(C4CCNCC4)cnc3c1)C2 (stereo not drawn) [Compound 502, 5-fluoro-7-{2-methyl-5H,6H,7H,8H-imidazo[1,2-a]pyridin-6-yl}-3-(piperidin-4-yl)quinazolin-4-one]",,,,,,,> 10000,> 10000,> 10000,> 10000,,
"Cc1cn2nc(-c3cc4ncn(C5CCNCC5)c(=O)c4cc3O)cc(C)c2n1 [Compound 503, 7-{2,8-dimethylimidazo[1,2-b]pyridazin-6-yl}-6-hydroxy-3-(piperidin-4-yl)quinazolin-4-one]",,,,,,,1000 to 10000,100 to 1000,< 100,< 100,,
"COc1cc2c(=O)n(C3CCNCC3)cnc2cc1-c1cc(C)c2nc(C)cn2n1 [Compound 504, 7-{2,8-dimethylimidazo[1,2-b]pyridazin-6-yl}-6-methoxy-3-(piperidin-4-yl)quinazolin-4-one]",,,,,,,> 10000,> 10000,> 10000,> 10000,,
"Cc1c(O)c(-c2ccc3c(=O)n(C4CCNCC4)cnc3n2)cc2cn(C)nc12 [Compound 505, 7-(6-hydroxy-2,7-dimethyl-2H-indazol-5-yl)-3-(piperidin-4-yl)pyrido[2,3-d]pyrimidin-4(3H)-one]",,,,,,,100 to 1000,100 to 1000,100 to 1000,100 to 1000,,
"COc1c(-c2ccc3c(=O)n(C4CCNCC4)cnc3n2)cc2cn(C)nc2c1C [Compound 506, 7-(6-methoxy-2,7-dimethylindazol-5-yl)-3-(piperidin-4-yl)pyrido[2,3-d]pyrimidin-4-one]",,,,,,,> 10000,> 10000,> 10000,> 10000,,
"Cc1cn2cc(-c3cc(O)c4c(=O)n(C5CCNC5)cnc4c3)cc(C#N)c2n1 (stereo not drawn) [Compound 507, 6-[5-hydroxy-4-oxo-3-(pyrrolidin-3-yl)quinazolin-7-yl]-2-methylimidazo[1,2-a]pyridine-8-carbonitrile; trifluoroacetic acid]",,,,,,,1000 to 10000,1000 to 10000,1000 to 10000,> 10000,,
"Cc1nc2c(o1)CN(c1cc(F)c3c(=O)n(C4CCNCC4)cnc3c1)CC2 [Compound 508, 5-fluoro-7-{2-methyl-4H,6H,7H-[1,3]oxazolo[5,4-c]pyridin-5-yl}-3-(piperidin-4-yl)quinazolin-4-one; trifluoroacetic acid]",,,,,,,> 10000,> 10000,1000 to 10000,> 10000,,
Cn1cc2nc(-c3cc(O)c4c(=O)n(C5CCNC6(CC6)C5)ncc4c3)ccc2n1 (stereo not drawn) [Compound 562],,,,,,,100 to 1000,100 to 1000,100 to 1000,100 to 1000,,

# Now from value to compound, other results behind:
"IC50 ([1]; decrease in HTT canonical junction (CJ) mRNA, RT-qPCR, read-out: HTT CJ IC50) [nM]","IC50 ([1]; Table 5 panel, canonical junction qPCR, compound concentration having 50% response in CJ decrease, read-out: HTT IC50 (decrease in CJ mRNA levels)) [nM]","IC50 ([2]; Table 5 panel, canonical junction qPCR, compound concentration having 50% response in CJ decrease, read-out: MYB IC50 (decrease in CJ mRNA levels)) [nM]","IC50 ([2]; decrease in MYB canonical junction (CJ) mRNA, RT-qPCR, read-out: MYB CJ IC50) [nM]",IC50 [3] [nM],IC50 [4] [nM],GI50 [5] [nM],IC50 [6] [nM],IC50 [7] [nM],IC50 [8] [nM],Structure (SMILES),"AC50 ([1]; increase in HTT alternative junction (AJ) mRNA, RT-qPCR, read-out: HTT AJ AC50) [nM]","AC50 ([2]; increase in MYB alternative junction (AJ) mRNA, RT-qPCR, read-out: MYB AJ AC50) [nM]"
,,,,,,100 to 1000,100 to 1000,100 to 1000,100 to 1000,Cn1cc2nc(-c3cc(F)c4c(=O)n(C5CCNC6(CC6)C5)ncc4c3)ccc2n1 (stereo not drawn) [Compound 563],,
,,,,,,100 to 1000,100 to 1000,100 to 1000,100 to 1000,Cc1nc2c(C)cc(-c3cc(O)c4c(=O)n(C5CCNC6(CC6)C5)ncc4c3)cc2o1 (stereo not drawn) [Compound 564],,
,,,,,,100 to 1000,< 100,< 100,< 100,Cc1cn2nc(-c3cc(F)c4c(=O)n(C5CCN(C)C6(CC6)C5)ncc4c3)cc(C)c2n1 (stereo not drawn) [Compound 565],,
,,,,,,100 to 1000,100 to 1000,100 to 1000,100 to 1000,Cc1cn2nc(-c3cc(N)c4c(=O)n(C5CCNCC5)ncc4c3)cc(C)c2n1 [Compound 566],,
,,,,,,1000 to 10000,1000 to 10000,100 to 1000,1000 to 10000,Cc1cn2nc(-c3ccc4c(=O)c(C5CCNCC5)cn(C)c4c3)cc(C)c2n1 [Compound 590],,
,,,,,,1000 to 10000,> 10000,1000 to 10000,> 10000,Cc1cn2cc(-c3ccc4c(=O)c(C5CCNCC5)cn(C)c4c3)nc(C)c2n1 [Compound 591],,
,,,,,,100 to 1000,100 to 1000,100 to 1000,100 to 1000,"Cc1cn2cc(-c3ncc4c(=O)n(C5CCNCC5)ccc4n3)cc(F)c2n1 [Compound 1213, 2-(8-fluoro-2-methylimidazo[1,2-a]pyridin-6-yl)-6-(piperidin-4-yl)pyrido[4,3-d]pyrimidin-5(6H)-one]",,
,,,,,,> 10000,> 10000,> 10000,> 10000,COc1c(-c2cc3ccn(C4CCNCC4)c(=O)c3cn2)cc2cn(C)nc2c1C [Compound 1218],,
,,,,,,< 100,100 to 1000,< 100,< 100,Cc1c(O)c(-c2ncc3c(=O)n(C4CCNCC4)ccc3n2)cc2cn(C)nc12 [Compound 1224],,

# Reference: US20250332173A1, “COMPOUNDS AND METHODS FOR MODULATING NUCLEIC ACID SPLICING” (REMIX THERAPEUTICS INC., priority 2021, published 2025)
